In experiment [1] the test system is Trichomonas vaginalis. The experiment is described as follows: Minimum inhibitory concentration against Trichomonas vaginalis. The class given is cell-based.
A further experiment deals with Entamoeba histolytica. The experiment is described as follows: Minimum inhibitory concentration against Entamoeba histolytica. The class given is cell-based. To be noted: Table II; for MIC: read-out: Minimum Inhibitory Concentration (MIC) in μg./ml. Against Entamoeba hist.
Experiment [2] relates to Trichomonas vaginalis. To be noted: literature: C. Cosar, Arzneimittelforschung 16, 23 (1966); French Pat. No. 1,212,028; cited from earlier work.
The mark [3] stands for this setting: Table II, read-out: Minimum Inhibitory Concentration (MIC) in μg./ml. Against Trich vag.
Where [4] appears, read: Table I, read-out: Minimum Inhibitory Concentration (MIC) in μg./ml. Against Trich. vag.

In brackets after ≈: the same amount, converted by molar mass. Read-outs that look alike come from different tables or passages of the source.

For “Mixture of 5-Methyl-4-(1-methyl-5-nitro-2-imidazolyl)-isoxazole and 3-Methyl-4-(1-methyl-5-nitro-2-imidazolyl)-isoxazole”, in the experiment with Trichomonas vaginalis [1] (Table II), the “Minimum Inhibitory Concentration (MIC) in μg./ml. Against Trich vag.” value came out at 0.2 µg/mL. In addition, the “Minimum Inhibitory Concentration (MIC) in μg./ml. Against Entamoeba hist.” value in the experiment on Entamoeba histolytica worked out at 50 µg/mL.

Consider `Cc1nn([N+](=O)[O-])cc1-c1ncc([N+](=O)[O-])n1C` [3-Methyl-4-(1-methyl-5-nitro-2-imidazolyl)-1-nitropyrazole], for which the MIC in the experiment on Trichomonas vaginalis [1] (setting [3]) stood at 0.4 µg/mL (≈ 1.59 µM); in the experiment on Entamoeba histolytica, 25 µg/mL (≈ 99.1 µM). Consider `CN(C)C=CC(=O)c1ncc([N+](=O)[O-])n1C` [3-Dimethylamino-1-(1-methyl-5-nitro-2-imidazolyl)-2-propenone], for which the MIC with Trichomonas vaginalis [1] (setting [4]) came out at 0.1 µg/mL (≈ 0.446 µM).

Consider `Cc1c(-c2ncc([N+](=O)[O-])n2C)cnn1-c1ccccc1` [5-Methyl-4-(1-methyl-5-nitro-2-imidazolyl)-1-phenylpyrazole], for which the MIC in the experiment on Trichomonas vaginalis [1] (setting [3]) came to 0.1 µg/mL (≈ 0.353 µM); in the experiment with Entamoeba histolytica, 12.5 µg/mL (≈ 44.1 µM).

Regarding `Cc1ncc([N+](=O)[O-])n1CCO` [Metronidazole, 5-nitro-2-methyl-1-(2-hydroxyethyl)-imidazole, reference compound], the MIC in the experiment with Trichomonas vaginalis [1] (setting [4]) is 1.6 µg/mL (≈ 9.35 µM); in the experiment on Trichomonas vaginalis [1] (setting [3]), 1.6 µg/mL (≈ 9.35 µM); in the experiment with Entamoeba histolytica it was greater than 100 µg/mL. In addition, the “effective against Trichomonas vaginalis” value in the experiment on Trichomonas vaginalis [2] is “effective”. As for “Mixture of 1,3-Dimethyl-4-(1-methyl-5-nitro-2-imidazolyl)-pyrazole and 1,5-Dimethyl-4-(1-methyl-5-nitro-2-imidazolyl)-pyrazole”, the “Minimum Inhibitory Concentration (MIC) in μg./ml. Against Trich vag.” value with Trichomonas vaginalis [1] (Table II) is 0.1 µg/mL. Besides, the “Minimum Inhibitory Concentration (MIC) in μg./ml. Against Entamoeba hist.” value in the experiment on Entamoeba histolytica came to 12.5 µg/mL. Regarding `Cc1nc(N)ncc1-c1ncc([N+](=O)[O-])n1C` [4-Methyl-5-(1-methyl-5-nitro-2-imidazolyl)-pyrimidine-2-amine], the MIC in the experiment on Trichomonas vaginalis [1] (setting [3]) worked out at 0.1 µg/mL (≈ 0.427 µM). Take `Cn1c([N+](=O)[O-])cnc1-c1cc[nH]n1` [3-(1-Methyl-5-nitro-2-imidazolyl)-pyrazole]: the MIC in the experiment on Trichomonas vaginalis [1] (setting [4]) amounted to 0.1 µg/mL (≈ 0.518 µM). Take `Cc1nc(-c2ccco2)ncc1-c1ncc([N+](=O)[O-])n1C` [2-(2-Furyl)-4-methyl-5-(1-methyl-5-nitro-2-imidazolyl)-pyrimidine]: the MIC with Trichomonas vaginalis [1] (setting [3]) turned out to be 0.4 µg/mL (≈ 1.4 µM). Same read-out and setting: under `COc1ccc(-n2ncc(-c3ncc([N+](=O)[O-])n3C)c2C)cc1` [1-p-Anisyl-5-methyl-4-(1-methyl-5-nitro-2-imidazolyl)-pyrazole] stands 0.2 µg/mL (≈ 0.638 µM); under `Cc1c(-c2ncc([N+](=O)[O-])n2C)cnn1-c1ccc([N+](=O)[O-])cc1` [5-Methyl-4-(1-methyl-5-nitro-2-imidazolyl)-1-(4-nitrophenyl)-pyrazole], 0.4 µg/mL (≈ 1.22 µM). As to `Cc1c(-c2ncc([N+](=O)[O-])n2C)cnn1CCO` [2-[5-Methyl-4-(1-methyl-5-nitro-2-imidazolyl)-pyrazolyl]-ethanol], the MIC stood at 0.2 µg/mL (≈ 0.796 µM) in the experiment on Trichomonas vaginalis [1] (setting [3]) and 50 µg/mL (≈ 199 µM) in the experiment with Entamoeba histolytica. In the case of `Cc1[nH]ncc1-c1ncc([N+](=O)[O-])n1C` [3(5)-Methyl-4-(1-methyl-5-nitro-2-imidazolyl)-pyrazole], the MIC worked out at 0.2 µg/mL (≈ 0.965 µM) in the experiment on Trichomonas vaginalis [1] (setting [3]) and 12.5 µg/mL (≈ 60.3 µM) in the experiment with Entamoeba histolytica. On to `Cn1nccc1-c1ncc([N+](=O)[O-])n1C` [1-Methyl-5-(1-methyl-5-nitro-2-imidazolyl)-pyrazole], for which the MIC in the experiment with Trichomonas vaginalis [1] (setting [4]) worked out at 0.05 µg/mL (≈ 0.241 µM). On to `Cc1c(-c2ncc([N+](=O)[O-])n2C)cnn1-c1ccc(Cl)cc1` [1-(4-Chlorophenyl)-5-methyl-4-(1-methyl-5-nitro-2-imidazolyl)-pyrazole], for which the MIC with Trichomonas vaginalis [1] (setting [3]) came out at 0.2 µg/mL (≈ 0.629 µM).

The record behind these values is patent US4038410A, “Nitroimidazole derivatives and process for the preparation thereof” (Schering Aktiengesellschaft, priority 1974, dated 1977).
